Values quoted from earlier work, collected in US20180255779A1, “TRIAZOLE FORMULATIONS” (Vive Crop Protection Inc., priority 2013, published 2018).
Where two headings read alike, the source gives them in different places.

Experiments:
[1] = octanol-water
[2] = not given; remark: listed apart in the source

Structure (SMILES)	Photolytic Stability, DT50 (pH 7)	Kow, log P [1]	further results
Fc1ccc([C@]2(Cn3cncn3)O[C@H]2c2ccccc2Cl)cc1 (racemic) [Epoxiconazole, (2RS,3SR)-1-[3-(2-chlorophenyl)-2,3-epoxy-2-(4-fluorophenyl)propyl]-1H-1,2,4-triazole]	DT50: 52 d (aqueous photolysis at pH 7)		
CC1(C)CC/C(=C\c2ccc(Cl)cc2)C1(O)Cn1cncn1 (racemic) [Triticonazole, (RS)-(E)-5-(4-chlorobenzylidene)-2,2-dimethyl-1-(1H-1,2,4-triazol-1-ylmethyl)cyclopentanol]	DT50: 3.1 d (aqueous photolysis at pH 7)		
CC1COC(Cn2cncn2)(c2ccc(Oc3ccc(Cl)cc3)cc2Cl)O1 (stereo not drawn) [Difenoconazole, 3-chloro-4-[(2RS,4RS;2RS,4SR)-4-methyl-2-(1H-1,2,4-triazol-1-ylmethyl)-1,3-dioxolan-2-yl]phenyl 4-chlorophenyl ether]		log P: 4.36	
CCCC1COC(Cn2cncn2)(c2ccc(Cl)cc2Cl)O1 (stereo not drawn) [Propiconazole, (2RS,4RS;2RS,4SR)-1-[2-(2,4-dichlorophenyl)-4-propyl-1,3-dioxolan-2-ylmethyl]-1H-1,2,4-triazole]		log P: 3.72	Solubility ([2]; heptane at 20° C.): 1585 mg/L (heptane at 20° C.); Solubility ([2]; water at 20° C.): 150 mg/L (water at 20° C.)
CC(C1CC1)C(O)(Cn1cncn1)c1ccc(Cl)cc1 (stereo not drawn) [Cyproconazole, (2RS,3RS;2RS,3SR)-2-(4-chlorophenyl)-3-cyclopropyl-1-(1H-1,2,4-triazol-1-yl)butan-2-ol]	DT 50: 40 d (aqueous photolysis at pH 7)		
FC(F)C(F)(F)OCC(Cn1cncn1)c1ccc(Cl)cc1Cl (racemic) [Tetraconazole, (RS)-2-(2,4-dichlorophenyl)-3-(1H-1,2,4-triazol-1-yl)propyl 1,1,2,2-tetrafluoroethyl ether]	217 days		
CCCCC(C#N)(Cn1cncn1)c1ccc(Cl)cc1 (racemic) [Myclobutanil, (RS)-2-(4-chlorophenyl)-2-(1H-1,2,4-triazol-1-ylmethyl)hexanenitrile]		log P: 2.89	Solubility ([2]; heptane at 20° C.): 1020 mg/L (heptane at 20° C.); Solubility ([2]; methanol and acetone, both at 20° C.): 250000 mg/L (methanol and acetone, both at 20° C.); Solubility ([2]; water at 20° C.): 132 mg/L (water at 20° C.); Photolytic Stability, DT50 (aqueous photolysis at pH 7): DT50: 15 d (aqueous photolysis at pH 7)
